Reference: BindingDB's records for doi:10.1124/jpet.104.077321 (I.G.B.M.C., 2005)
pKi: −log10 of the molar value. Where a SMILES comes first, the peptide text is derived from it.

target: Delta-type opioid receptor (Homo sapiens, UniProt P41143)
Sequence (P41143 whole entry): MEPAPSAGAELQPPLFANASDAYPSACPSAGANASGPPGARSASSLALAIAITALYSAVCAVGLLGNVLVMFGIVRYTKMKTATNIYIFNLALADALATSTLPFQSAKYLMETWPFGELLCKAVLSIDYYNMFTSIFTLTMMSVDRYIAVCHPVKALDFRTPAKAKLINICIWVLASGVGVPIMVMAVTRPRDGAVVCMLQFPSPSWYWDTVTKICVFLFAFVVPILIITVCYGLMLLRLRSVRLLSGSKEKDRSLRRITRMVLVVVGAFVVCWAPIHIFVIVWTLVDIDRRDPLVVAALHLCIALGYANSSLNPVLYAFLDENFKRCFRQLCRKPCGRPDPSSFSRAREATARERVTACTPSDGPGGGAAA

Going from `Cc1cc(O)cc(C)c1C[C@@H](C(=O)N1Cc2ccccc2C[C@H]1C(N)=O)N(C)C` to `Cc1cc(O)cc(C)c1C[C@H](N)C(=O)N1Cc2ccccc2C[C@H]1C(N)=O` [H-Dmt-Tic-NH2] (HELM PEPTIDE1{[Cc1cc(O)cc(C)c1C[C@H](N)C(=O)[*:2]].[Tic].[am]}$$$$V2.0), the pKi falls from 8.60 to 8.03 (0.57 log units).

Compared with `Cc1cc(O)cc(C)c1C[C@H](N)C(=O)N1Cc2ccccc2C[C@H]1C(=O)O` [(S)-2-((S)-2-amino-3-(4-hydroxy-2,6-dimethylphenyl)propanoyl)-1,2,3,4-tetrahydroisoquinoline-3-carboxylic acid] (HELM PEPTIDE1{[Cc1cc(O)cc(C)c1C[C@H](N)C(=O)[*:2]].[Tic]}$$$$V2.0), `N[C@@H](Cc1ccc(O)cc1)C(=O)N1Cc2ccccc2C[C@H]1C(=O)N[C@@H](Cc1ccccc1)C(=O)N[C@@H](Cc1ccccc1)C(=O)O` [TIPP] (HELM PEPTIDE1{Y.[Tic].F.F}$$$$V2.0) is 0.66 log units higher in pKi: 7.88 for the first, 8.54 for the second.

Going from `CCO[C@@]12Cc3c([nH]c4ccccc34)[C@]3(C)Oc4c(O)ccc5c4C31CCN(CC1CC1)C2C5` (stereo partly specified) [HS378] to `CCO[C@@]12Cc3c([nH]c4ccccc34)C3Oc4c(O)ccc5c4C31CCN(CC1CC1)C2C5` (stereo partly specified) [HS464], the pKi rises from 9.40 to 9.96 (0.56 log units). The second binds more tightly here.

First: C=CCN1CCC23c4c5ccc(O)c4OC2c2[nH]c4ccccc4c2C[C@@]3(OCC)C1C5 (stereo partly specified) [HS414]
Second: C=CCN1CCC23c4c5ccc(O)c4OC2c2c(c4ccccc4n2C)C[C@@]3(OC)C1C5 (stereo partly specified) [HS531]
The pKi of the first is 0.70 log units lower: 8.68 for the first, 9.38 for the second. The second binds more tightly here.

Going from `CCO[C@@]12Cc3c(oc4ccccc34)C3Oc4c(O)ccc5c4C31CCN(CC1CC1)C2C5` (stereo partly specified) [HS510A] to `COc1c(O)cc2c3c1O[C@@]1(C)c4oc5ccccc5c4C[C@@]4(O)C(C2)N(CC2CC2)CCC314` (stereo partly specified) [NSC_0], the pKi falls from 9.92 to 9.66 (0.26 log units).

In the case of `C=CCN(CC=C)[C@@H](Cc1ccc(O)cc1)C(=O)NC(C)(C)C(=O)NC(C)(C)C(=O)N[C@@H](Cc1ccccc1)C(=O)N[C@@H](CC(C)C)C(=O)O` [NSC_107691] (HELM PEPTIDE1{[C=CCN(CC=C)[C@@H](Cc1ccc(O)cc1)C(=O)[*:2]].[Aib].[Aib].F.L}$$$$V2.0), the pKi was 6.36.
